In patent publication US12466841B2, “Substituted pyrrolo[3,4-c]pyridines as HPK1 antagonists” (Nimbus Saturn, Inc., priority 2021, dated 2025):
pIC50: −log10 of the molar value.

Molecular target: HPK1 (Homo sapiens (Human), UniProt Q92918)
Experiment: HPK1 biochemical enzyme assay (microfluidic mobility shift)
Details: 1.5 nM HPK1, ATP 1 mM final, 60 min at RT, Caliper EZ Reader; read-out: HPK1 1000UMATP caliper IC50
Experimental: HPK1 biochemical enzyme assay: HPK1 enzyme inhibition was measured using a microfluidic mobility shift assay. Reactions were performed in a 384-well plate, containing 1.5 nM HPK1 (Invitrogen), in assay buffer (Cana Biosciences; pH 7.4). Test compounds were titrated in ten point curves (top final assay concentration 3 μM), and preincubated with enzyme/substrate mix for 30 min prior to initiation of the reaction by addition of ATP (1 mM final concentration) and substrate (1 μM final concentration; Carna Biosciences) diluted in assay buffer supplemented by MgCl2 (final assay concentration of 5 mM). Following 60 min incubation at RT, the reaction was terminated by addition of 60 μl/well termination buffer (Carna Biosciences) and signal determination using a Caliper EZ Reader (Perkin Elmer, UK).
Compounds having an activity designated as “A” provided an IC50≤100 nM; compounds having an activity designated as “B” provided an IC50>100 nM.

Sequence of HPK1 (Q92918 whole entry): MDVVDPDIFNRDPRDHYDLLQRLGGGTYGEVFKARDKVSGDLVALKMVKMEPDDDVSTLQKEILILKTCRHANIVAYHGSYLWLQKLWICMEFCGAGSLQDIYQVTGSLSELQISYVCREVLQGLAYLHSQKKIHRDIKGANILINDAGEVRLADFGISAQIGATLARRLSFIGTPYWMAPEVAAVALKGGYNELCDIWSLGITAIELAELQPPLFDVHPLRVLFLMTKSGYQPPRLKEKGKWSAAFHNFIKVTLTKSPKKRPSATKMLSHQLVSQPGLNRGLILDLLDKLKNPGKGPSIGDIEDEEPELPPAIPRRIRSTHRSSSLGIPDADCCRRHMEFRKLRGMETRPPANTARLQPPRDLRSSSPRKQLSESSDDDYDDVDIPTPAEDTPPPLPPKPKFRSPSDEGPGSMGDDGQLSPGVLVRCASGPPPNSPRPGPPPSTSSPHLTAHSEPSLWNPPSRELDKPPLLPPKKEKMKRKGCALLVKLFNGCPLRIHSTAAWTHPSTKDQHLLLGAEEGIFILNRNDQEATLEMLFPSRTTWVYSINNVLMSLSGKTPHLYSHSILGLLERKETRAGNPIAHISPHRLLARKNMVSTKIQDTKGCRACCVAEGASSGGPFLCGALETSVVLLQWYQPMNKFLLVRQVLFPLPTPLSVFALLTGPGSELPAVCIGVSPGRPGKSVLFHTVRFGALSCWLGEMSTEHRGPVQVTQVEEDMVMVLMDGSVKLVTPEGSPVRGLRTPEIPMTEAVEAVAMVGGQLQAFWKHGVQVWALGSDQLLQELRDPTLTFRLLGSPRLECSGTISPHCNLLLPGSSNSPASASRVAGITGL

Compound | pIC50
CN1CCN(c2ccc(Nc3ncc(-c4cnc5cc(F)ccn45)c4c3C(=O)NC4)cc2)CC1 [Compound I-15, 7-(7-fluoroimidazo[1,2-a]pyridin-3-yl)-4-((4-(4-methylpiperazin-1-yl)phenyl)amino)-1,2-dihydro-3H-pyrrolo[3,4-c]pyridin-3-one] | < 7.00
CC(C)(O)[C@@H]1CCCN(c2ccc(Nc3ncc(-c4cnc5cc(F)ccn45)c4c3C(=O)NC4)cc2)C1 (single isomer, unassigned) [Compound I-4] | < 7.00
CN(C)Cc1cc(Nc2ncc(-c3cnc4cc(F)ccn34)c3c2C(=O)NC3)ccc1[C@@H]1CCOC1 [Compound I-20, (S)-4-((3-((dimethylamino)methyl)-4-(tetrahydrofuran-3-yl)phenyl)amino)-7-(7-fluoroimidazo[1,2-a]pyridin-3-yl)-1,2-dihydro-3H-pyrrolo[3,4-c]pyridin-3-one] | < 7.00
CN(C)C[C@@H]1CN(c2ccc(Nc3ncc(-c4ccnc5c4ccn5C)c4c3C(=O)NC4)cc2)CCO1 (single isomer, unassigned) [Compound I-17] | ≥ 7.00
CN(C)Cc1cc(Nc2ncc(-c3cnc4cc(F)ccn34)c3c2C(=O)NC3)ccc1[C@H]1CCOC1 [Compound I-19, (R)-4-((3-((dimethylamino)methyl)-4-(tetrahydrofuran-3-yl)phenyl)amino)-7-(7-fluoroimidazo[1,2-a]pyridin-3-yl)-1,2-dihydro-3H-pyrrolo[3,4-c]pyridin-3-one] | ≥ 7.00
Cn1ccc2c(-c3cnc(Nc4ccc(N5CCC[C@H](C(C)(C)O)C5)cc4)c4c3CNC4=O)ccnc21 [Compound I-11, (S)-4-((4-(3-(2-hydroxypropan-2-yl)piperidin-1-yl)phenyl)amino)-7-(1-methyl-1H-pyrrolo[2,3-b]pyridin-4-yl)-1,2-dihydro-3H-pyrrolo[3,4-c]pyridin-3-one] | ≥ 7.00
O=C1NCc2c(-c3cnc4cc(F)ccn34)cnc(Nc3ccc(N4CCC(O)CC4)cc3)c21 [Compound I-14, 7-(7-fluoroimidazo[1,2-a]pyridin-3-yl)-4-((4-(4-hydroxypiperidin-1-yl)phenyl)amino)-1,2-dihydro-3H-pyrrolo[3,4-c]pyridin-3-one] | < 7.00
Cn1ccc2c(-c3cnc(Nc4ccc(N5CCC(O)CC5)cc4)c4c3CNC4=O)ccnc21 [Compound I-8, 4-((4-(4-hydroxypiperidin-1-yl)phenyl)amino)-7-(1-methyl-1H-pyrrolo[2,3-b]pyridin-4-yl)-1,2-dihydro-3H-pyrrolo[3,4-c]pyridin-3-one] | ≥ 7.00
CC(C)(O)C1CN(c2ccc(Nc3ncc(-c4cnc5cc(F)ccn45)c4c3C(=O)NC4)cc2)CCO1 (centres unmarked) [Compound I-16, 7-(7-fluoroimidazo[1,2-a]pyridin-3-yl)-4-((4-(2-(2-hydroxypropan-2-yl)morpholino)phenyl)amino)-1,2-dihydro-3H-pyrrolo[3,4-c]pyridin-3-one] | ≥ 7.00
CN(C)Cc1cc(Nc2ncc(-c3ccnc4c3ccn4C)c3c2C(=O)NC3)ccc1N1CCOCC1 [Compound I-7, 4-((3-((dimethylamino)methyl)-4-morpholinophenyl)amino)-7-(1-methyl-1H-pyrrolo[2,3-b]pyridin-4-yl)-1,2-dihydro-3H-pyrrolo[3,4-c]pyridin-3-one] | ≥ 7.00
Cn1cncc1-c1cnc(Nc2ccc(N3CCC[C@H](C(C)(C)O)C3)cc2)c2c1CNC2=O [Compound I-24, (S)-4-((4-(3-(2-hydroxypropan-2-yl)piperidin-1-yl)phenyl)amino)-7-(1-methyl-1H-imidazol-5-yl)-1,2-dihydro-3H-pyrrolo[3,4-c]pyridin-3-one] | ≥ 7.00
4-((3-((dimethylamino)methyl)-4-(4-hydroxypiperidin-1-yl)phenyl)amino)-7-(1-methyl-1H-pyrrolo[2,3-b]pyridin-4-yl)-1,2-dihydro-3H-pyrrolo[3,4-c]pyridin-3-one [Compound I-21] | < 7.00
CN(C)C[C@H]1CN(c2ccc(Nc3ncc(-c4ccnc5c4ccn5C)c4c3C(=O)NC4)cc2)CCO1 (single isomer, unassigned) [Compound I-18] | ≥ 7.00
COCC1(O)CCN(c2ccc(Nc3ncc(-c4cnc5cc(F)ccn45)c4c3C(=O)NC4)cc2CN(C)C)CC1 [Compound I-22, 4-((3-((dimethylamino)methyl)-4-(4-hydroxy-4-(methoxymethyl)piperidin-1-yl)phenyl)amino)-7-(7-fluoroimidazo[1,2-a]pyridin-3-yl)-1,2-dihydro-3H-pyrrolo[3,4-c]pyridin-3-one] | < 7.00
CC(C)(O)C1CN(c2ccc(Nc3ncc(-c4ccncc4)c4c3C(=O)NC4)cc2)CCO1 (centres unmarked) [Compound I-27, 4-((4-(2-(2-hydroxypropan-2-yl)morpholino)phenyl)amino)-7-(pyridin-4-yl)-1,2-dihydro-3H-pyrrolo[3,4-c]pyridin-3-one] | < 7.00
CN(C)Cc1cc(Nc2ncc(-c3cnc4cc(F)ccn34)c3c2C(=O)NC3)ccc1C1CCOCC1 [Compound I-6, 4-((3-((dimethylamino)methyl)-4-(tetrahydro-2H-pyran-4-yl)phenyl)amino)-7-(7-fluoroimidazo[1,2-a]pyridin-3-yl)-1,2-dihydro-3H-pyrrolo[3,4-c]pyridin-3-one] | ≥ 7.00
Cn1ccc2c(-c3cnc(Nc4ccc(S(C)(=O)=O)cc4)c4c3CNC4=O)ccnc21 [Compound I-9, 7-(1-methyl-1H-pyrrolo[2,3-b]pyridin-4-yl)-4-((4-(methylsulfonyl)phenyl)amino)-1,2-dihydro-3H-pyrrolo[3,4-c]pyridin-3-one] | < 7.00
Cn1cncc1-c1cnc(Nc2ccc(N3CCNCC3)cc2)c2c1CNC2=O [Compound I-26, 7-(1-methyl-1H-imidazol-5-yl)-4-((4-(piperazin-1-yl)phenyl)amino)-1,2-dihydro-3H-pyrrolo[3,4-c]pyridin-3-one] | < 7.00
Cn1ccc2c(-c3cnc(Nc4ccc(N5CCC(O)CC5)nc4)c4c3CNC4=O)ccnc21 [Compound I-1, 4-((6-(4-hydroxypiperidin-1-yl)pyridin-3-yl)amino)-7-(1-methyl-1H-pyrrolo[2,3-b]pyridin-4-yl)-1,2-dihydro-3H-pyrrolo[3,4-c]pyridin-3-one] | < 7.00
Cc1ccc2c(-c3cnc(Nc4ccc(N5CCC(O)CC5)cc4)c4c3CNC4=O)cnn2c1 [Compound I-13, 4-((4-(4-hydroxypiperidin-1-yl)phenyl)amino)-7-(6-methylpyrazolo[1,5-a]pyridin-3-yl)-1,2-dihydro-3H-pyrrolo[3,4-c]pyridin-3-one] | ≥ 7.00
CC(C)(O)[C@H]1CN(c2ccc(Nc3ncc(-c4ccncc4)c4c3C(=O)NC4)cc2)CCO1 [Compound I-28, (R)-4-((4-(2-(2-hydroxypropan-2-yl)morpholino)phenyl)amino)-7-(pyridin-4-yl)-1,2-dihydro-3H-pyrrolo[3,4-c]pyridin-3-one] | < 7.00
CN1CCN(c2ccc(Nc3ncc(-c4ccncc4)c4c3C(=O)NC4)cc2)CC1 [Compound I-5, 4-((4-(4-methylpiperazin-1-yl)phenyl)amino)-7-(pyridin-4-yl)-1,2-dihydro-3H-pyrrolo[3,4-c]pyridin-3-one] | < 7.00
CNC1CCN(c2ccc(Nc3ncc(-c4ccncc4)c4c3C(=O)NC4)cc2)CC1 [Compound I-23, 4-((4-(4-(methylamino)piperidin-1-yl)phenyl)amino)-7-(pyridin-4-yl)-1,2-dihydro-3H-pyrrolo[3,4-c]pyridin-3-one] | < 7.00
Cn1ccc2c(-c3cnc(Nc4ccc(N5CCC[C@@H](C(C)(C)O)C5)cc4)c4c3CNC4=O)ccnc21 [Compound I-12, (R)-4-((4-(3-(2-hydroxypropan-2-yl)piperidin-1-yl)phenyl)amino)-7-(1-methyl-1H-pyrrolo[2,3-b]pyridin-4-yl)-1,2-dihydro-3H-pyrrolo[3,4-c]pyridin-3-one] | ≥ 7.00
Cn1ccc2c(-c3cnc(Nc4ccc(N5CCC(O)CC5)cn4)c4c3CNC4=O)ccnc21 [Compound I-10, 4-((5-(4-hydroxypiperidin-1-yl)pyridin-2-yl)amino)-7-(1-methyl-1H-pyrrolo[2,3-b]pyridin-4-yl)-1,2-dihydro-3H-pyrrolo[3,4-c]pyridin-3-one] | < 7.00
Cn1cncc1-c1cnc(Nc2ccc(N3CCC[C@@H](C(C)(C)O)C3)cc2)c2c1CNC2=O [Compound I-25, (R)-4-((4-(3-(2-hydroxypropan-2-yl)piperidin-1-yl)phenyl)amino)-7-(1-methyl-1H-imidazol-5-yl)-1,2-dihydro-3H-pyrrolo[3,4-c]pyridin-3-one] | < 7.00
